Article PMC9960553, ““Dual Anta-Inhibitors” of the A2A Adenosine Receptor and Casein Kinase CK1delta: Synthesis, Biological Evaluation, and Molecular Modeling Studies” (Pharmaceuticals, 2023)
Several values for one entry are separate records, joined by “and”; a condition that tells them apart may be missing. Equal values may be shown once.

Tests used:
truncated CK1δ = target: T1, truncated CK1δ (Homo sapiens, UniProt P48730); test: CK1δ luminescent kinase assay (Kinase-Glo); type: biochemical; conditions: for remaining activity at 40 µM: compound at 40 μM, read-out: % Residual Activity at 40 μM ± sd; for IC50: truncated CK1δ, ATP 2 μM, read-out: IC50 (μM), CK1δ inhibition; for remaining activity at 10 µM: read-out: % Residual Activity at 10 μM ± sd
T1 construct: recombinant human, GST-tagged, aa 1-294; GST; purchased Merck Millipore, Merck KGaA, Darmstadt, Germany
T1 sequence (P48730 1-294): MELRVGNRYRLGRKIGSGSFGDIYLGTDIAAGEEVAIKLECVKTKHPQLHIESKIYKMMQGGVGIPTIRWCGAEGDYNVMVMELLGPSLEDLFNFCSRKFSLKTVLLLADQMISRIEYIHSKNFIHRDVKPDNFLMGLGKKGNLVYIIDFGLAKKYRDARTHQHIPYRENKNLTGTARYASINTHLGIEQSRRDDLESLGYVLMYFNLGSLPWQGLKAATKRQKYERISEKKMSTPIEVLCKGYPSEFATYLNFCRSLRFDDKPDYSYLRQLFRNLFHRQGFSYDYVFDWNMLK
Method: Luminescent assays were performed in white 96-well plates in a 40 μL final volume with buffer containing 50 mM HEPES (pH 7.5), 1 mM EDTA, 1 mM EGTA, and 15 mM MgCl2. In a typical assay, 10 μL of inhibitor solution (desired concentrations were obtained by diluting a starting 10 mM solution in DMSO) and 10 μL of enzyme solution were added to the well, followed by 20 μL of assay buffer containing casein substrate (Sigma-Aldrich, Merck KGaA, Darmstadt, Germany, casein solution from bovine milk, 5% in water) and ATP, at a final concentration of 0.05% and 2 μM, respectively. […] After 60 min of incubation at 30 °C, the enzymatic reactions were stopped with the addition of 40 μL of KinaseGlo reagent. […] Data were analyzed using Excel and GraphPad Prism software (version 8.0).

human recombinant A1AR = target: T2, human recombinant A1AR (Homo sapiens, UniProt P30542); test: [3H]CCPA displacement binding in CHO cell membranes; conditions: mean ± standard error, read-out: KiA1
T2 construct: expressed in transfected cells; host or cells: CHO cells (membranes)
T2 sequence (P30542 1-326): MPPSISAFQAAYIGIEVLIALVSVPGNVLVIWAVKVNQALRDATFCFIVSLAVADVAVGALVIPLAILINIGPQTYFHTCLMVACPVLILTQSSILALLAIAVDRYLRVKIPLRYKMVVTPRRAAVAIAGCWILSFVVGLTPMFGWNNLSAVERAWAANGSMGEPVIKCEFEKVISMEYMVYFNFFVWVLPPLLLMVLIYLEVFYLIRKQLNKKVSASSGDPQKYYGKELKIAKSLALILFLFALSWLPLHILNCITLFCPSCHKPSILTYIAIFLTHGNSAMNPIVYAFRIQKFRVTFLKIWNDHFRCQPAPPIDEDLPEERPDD
Method: (§1) Compounds 5, 6, 8–12, 15–21, and 23–25 were evaluated in binding studies at human recombinant A1, A2A, and A3 ARs, stably transfected in Chinese hamster ovary (CHO) cells. [^3H]CCPA (2-chloro-N^6-cyclopentylAdo), [^3H]NECA (5’-N-ethylcarboxamidoAdo), and [^3H]HEMADO (2-hexynyl-N^6-methylAdo) were used as the, respective, radioligands. All compounds were also tested at the A2BARs by inhibition of NECA-stimulated adenylyl cyclase activity, using the GloSensor cAMP assay, but none of them were active at a concentration up to 30 μM [35]. The results, together with the data of the reference adenine derivative 1, are reported in Table 2 as Ki values in μM (± standard errors). In the table, the IC50 values (μM) of the CK1δ inhibitory activity are also indicated. […] We called the compounds endowed with receptor antagonist behavior combined with an enzyme inhibitory activity “dual anta-inhibitors”.
(§2) All of the pharmacological methods followed the procedures as described earlier. In brief, the membranes for radioligand binding were prepared from CHO cells stably transfected with human adenosine receptor subtypes through two centrifugations at different speeds. The first low-speed […] centrifugation allowed for the removal of cell fragments and nuclei, while the second, performed at high speed (100,000× g), allowed for the precipitation of the crude membrane fractions. The resulting membrane pellet was resuspended in the buffer used for the respective binding experiments, frozen in liquid nitrogen, and stored in aliquots at −80 °C.
(§3) The binding affinity of the novel compounds was evaluated using radioligand competition experiments in CHO cells stably expressing hA1AR, hA2AAR, hA3AR subtypes, as early described. Results were expressed as Ki values (dissociation constants), which were calculated with the program GraphPad (GraphPad Software, San Diego, CA, USA). Each concentration was tested three–five times in duplicate and the values given as the mean ± standard error (S.E.). The potency of compounds at the hA2BAR (expressed on CHO cells) was determined through a GloSensor cAMP Assay.

human recombinant A2AAR = target: T3, human recombinant A2AAR (Homo sapiens, UniProt P29274); test: [3H]NECA displacement binding in CHO cell membranes; conditions: mean ± standard error, read-out: KiA2A
T3 construct: expressed in transfected cells; host or cells: CHO cells (membranes)
Method: as §1, §2, §3

human recombinant A3AR = target: T4, human recombinant A3AR (Homo sapiens, UniProt P0DMS8); test: [3H]HEMADO displacement binding in CHO cell membranes; conditions: mean ± standard error, read-out: KiA3
T4 construct: expressed in transfected cells; host or cells: CHO cells (membranes)
T4 sequence (P0DMS8 1-318): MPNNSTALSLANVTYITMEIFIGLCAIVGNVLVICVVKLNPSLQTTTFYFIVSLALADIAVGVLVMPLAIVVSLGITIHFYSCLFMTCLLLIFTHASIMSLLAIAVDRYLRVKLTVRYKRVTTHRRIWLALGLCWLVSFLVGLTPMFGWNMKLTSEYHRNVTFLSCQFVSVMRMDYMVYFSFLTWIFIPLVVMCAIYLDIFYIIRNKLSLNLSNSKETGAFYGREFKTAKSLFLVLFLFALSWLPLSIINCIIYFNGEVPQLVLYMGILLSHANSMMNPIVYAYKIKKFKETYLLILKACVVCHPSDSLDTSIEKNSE
Method: as §1, §2, §3

[1] = CK1δ residual activity, compound at 10 μM

T3 sequence (P29274 whole entry): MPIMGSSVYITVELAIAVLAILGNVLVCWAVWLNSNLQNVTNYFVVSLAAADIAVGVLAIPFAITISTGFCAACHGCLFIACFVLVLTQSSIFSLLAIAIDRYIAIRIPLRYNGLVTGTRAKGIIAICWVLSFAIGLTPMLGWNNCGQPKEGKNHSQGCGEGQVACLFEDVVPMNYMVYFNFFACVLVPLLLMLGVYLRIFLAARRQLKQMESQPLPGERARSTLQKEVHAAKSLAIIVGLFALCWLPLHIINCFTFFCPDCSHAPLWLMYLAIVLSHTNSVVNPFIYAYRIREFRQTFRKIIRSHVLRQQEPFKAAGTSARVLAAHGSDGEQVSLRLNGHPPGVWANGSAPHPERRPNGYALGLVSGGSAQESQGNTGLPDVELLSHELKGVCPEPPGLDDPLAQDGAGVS

Compound | remaining activity at 40 µM (truncated CK1δ; CK1δ residual activity) [%] | IC50 (truncated CK1δ) | Ki (human recombinant A1AR) [nM] | Ki (human recombinant A2AAR) [nM] | Ki (human recombinant A3AR) [nM] | melting point [°C] | remaining activity at 10 µM (truncated CK1δ; [1]) [%] | % Residual Activity at 10 μM ± sd (truncated CK1δ; CK1δ residual activity, compound at 10 μM, 10 µM) [%]
Nc1nc(Cl)nc2c1nc(-c1cccs1)n2C1CCCC1 [Compound 9, 2-chloro-9-cyclopentyl-8-(thiophen-2-yl)-9H-purin-6-amine] | 90 ± 4.6 | > 40 µM | 53 ± 9 | 36 ± 9 | 17 ± 2 | 158 to 159 | – | –
Clc1nc(NCCc2ccccc2)c2ncn(C3CCCC3)c2n1 [Compound 23, 2-chloro-N^6-(2-phenylethyl)-9-cyclopentyladenine] | 14 ± 9.7 | 0.66 ± 0.2 µM | 1340 ± 279 | 1170 ± 37 | 151 ± 15 | 100 to 101 | 27 ± 20 | –
Clc1nc(NCCCc2ccccc2)c2ncn(C3CCCC3)c2n1 [Compound 24, 2-chloro-9-cyclopentyl-N-(3-phenylpropyl)-9H-purin-6-amine] | 11 ± 19 | 0.73 ± 0.1 µM | 692 ± 88 | 3340 ± 749 | 1270 ± 289 | 177 to 179 | 26 ± 6.7 | –
O=C(NCc1ccccc1)Nc1nc(Cl)nc2c1ncn2C1CCCC1 [Compound 18, 1-Benzyl-3-(2-chloro-9-cyclopentyl-9H-purin-6-yl)urea] | 29 ± 3.9 | 3.37 ± 2.5 µM | > 30000 | > 30000 | > 30000 | – | 38 ± 6 | –
c1ccc(CNc2nc(NCc3nc4ccccc4[nH]3)c3ncn(C4CCCC4)c3n2)cc1 [Compound 16, N^6-((1H-benzo[d]imidazol-2-yl)methyl)-N^2-benzyl-9-cyclopentyl-9H-purine-2,6-diamine] | 46 ± 31 | 4.76 ± 0.3 µM | > 30000 | 718 ± 149 | 432 ± 25 | – | 26 ± 7.6 | –
Nc1nc(Cl)nc2c1ncn2C1CCCCC1 [Compound 6, 2-chloro-9-cyclohexyl-9H-purin-6-amine] | 30 ± 0.2 | > 10 µM | – | – | – | 125 to 126 | > 50 | 52 ± 3.0
COC(=O)CNc1nc(Cl)nc2c1ncn2C1CCCC1 [Compound 19, Methyl (2-chloro-9-cyclopentyl-9H-purin-6-yl)glycinate] | 44 ± 2.6 | 2.55 ± 0.2 µM | 20700 ± 1870 | 13500 ± 980 | 14800 ± 3010 | – | 23 ± 2.4 | –
Nc1nc(Cl)nc2c1nc(-c1ccco1)n2C1CCCC1 [Compound 8, 2-chloro-9-cyclopentyl-8-(furan-2-yl)-9H-purin-6-amine] | 86 ± 1.6 | > 40 µM | 118 ± 10 | 7 | 140 ± 35 | 152 to 153 | – | –
Nc1nc(Cl)nc2c1ncn2C1CCCC1 [Compound 1, 2-chloro-9-cyclopentyl-9H-purin-6-amine] | 0.7 ± 0.4 | 5.25 µM and 5.2 µM | 1890 ± 160 | 465 ± 129 | 631 ± 62 | 121 to 122 | 13 ± 7.4 | –
Nc1nc(Cl)nc2c1ncn2C1CCC1 [Compound 5, 2-chloro-9-cyclobutyl-9H-purin-6-amine] | 43 ± 3.2 | 5.25 ± 0.9 µM | 1530 ± 265 | 558 ± 151 | – | 117 to 119 | 37 ± 3.8 | –
Clc1ccc(CCNc2nc(Cl)nc3c2ncn3C2CCCC2)cc1 [Compound 25, 2-Chloro-N-(4-chlorophenethyl)-9-cyclopentyl-9H-purin-6-amine] | 14 ± 4.3 | 1.69 ± 1 µM | 10800 ± 2040 | 2650 ± 381 | – | – | 31 ± 12 | –
Nc1nc(NCCc2ccccc2)nc2c1ncn2C1CCCC1 [Compound 11, 9-Cyclopentyl-N^2-phenethyl-9H-purine-2,6-diamine] | 88 ± 2.9 | > 40 µM | 580 ± 46 | 12 ± 3 | 49 ± 8 | – | – | –
O=C(CNc1nc(Cl)nc2c1ncn2C1CCCC1)NCc1ccccc1 [Compound 20] | 29 ± 12 | 1.87 ± 0.2 µM | > 30000 | > 30000 | – | – | 32 ± 16 | –
Nc1nc(NCc2ccccc2)nc2c1ncn2C1CCCC1 [Compound 10, N^2-benzyl-9-cyclopentyl-9H-purine-2,6-diamine] | 30 ± 4.1 | 5.3 ± 1 µM | 3960 ± 800 | 157 ± 40 | 298 ± 47 | – | 48 ± 3.5 | –
N#CCNc1nc(Cl)nc2c1ncn2C1CCCC1 [Compound 21, 2-((2-Chloro-9-cyclopentyl-9H-purin-6-yl)amino)acetonitrile] | 25 ± 9.6 | 0.36 ± 0.1 µM | 8660 ± 1520 | 3480 ± 312 | 5960 ± 1020 | – | 13 ± 24 | –
Clc1nc(NCc2nc3ccccc3[nH]2)c2ncn(C3CCCC3)c2n1 [Compound 15, N-((1H-benzo[d]imidazol-2-yl)methyl)-2-chloro-9-cyclopentyl-9H-purin-6-amine] | 22 ± 13 | 1.53 ± 0.4 µM | > 30000 | 3260 ± 626 | 1138 ± 4 | – | 24 ± 14 | –
